These results are taken from patent publication US9067871B2, “Aminotetraline derivatives, pharmaceutical compositions containing them, and their use in therapy” (ABBVIE DEUTSCHLAND GMBH & CO KG, priority 2009, dated 2015).

Structures can show the parent of a compound that is named as a salt. Where two headings read alike, the source gives them in different places.

One assay has as its target human GlyT1c (Homo sapiens (Human), UniProt P48067). Description: [3H]-Glycine uptake into recombinant CHO cells expressing human GlyT1. In kind it is cell-based. The protocol: 1. [^3H]-Glycine uptake into recombinant CHO cells expressing human GlyT1: Human GlyT1c expressing recombinant hGlyT1c—5_CHO cells were plated at 20,000 cells per well in 96 well Cytostar-T scintillation microplates (Amersham Biosciences) and cultured to sub-confluency for 24 h. […] 80 μl HBSS buffer were added, followed by 10 μl inhibitor or vehicle (10% DMSO) and 10 μl [^3H]-glycine (TRK71, Amersham Biosciences) to a final concentration of 200 nM for initiation of glycine uptake. The plates were placed in a Wallac Microbeta (PerkinElmer) and continuously counted by solid phase scintillation spectrometry during up to 3 hours. Nonspecific uptake was determined in the presence of 10 μM Org24598.

Another assay deals with human GlyT1c transporter (Homo sapiens (Human), UniProt P48067). Description: Radioligand binding assay using recombinant CHO cell membranes expressing human GlyT1. As to conditions: read-out: radioligand binding Kiapp. An excerpt: 2. Radioligand binding assays using recombinant CHO cell membranes expressing human GlyT1: […]
[1] abbreviates: hGlyT1c_5_CHO cells, 200 nM [3H]-glycine.
Setting [2] is: human GlyT1c-expressing CHO cell membranes.

Chain of human GlyT1c (P48067 whole entry): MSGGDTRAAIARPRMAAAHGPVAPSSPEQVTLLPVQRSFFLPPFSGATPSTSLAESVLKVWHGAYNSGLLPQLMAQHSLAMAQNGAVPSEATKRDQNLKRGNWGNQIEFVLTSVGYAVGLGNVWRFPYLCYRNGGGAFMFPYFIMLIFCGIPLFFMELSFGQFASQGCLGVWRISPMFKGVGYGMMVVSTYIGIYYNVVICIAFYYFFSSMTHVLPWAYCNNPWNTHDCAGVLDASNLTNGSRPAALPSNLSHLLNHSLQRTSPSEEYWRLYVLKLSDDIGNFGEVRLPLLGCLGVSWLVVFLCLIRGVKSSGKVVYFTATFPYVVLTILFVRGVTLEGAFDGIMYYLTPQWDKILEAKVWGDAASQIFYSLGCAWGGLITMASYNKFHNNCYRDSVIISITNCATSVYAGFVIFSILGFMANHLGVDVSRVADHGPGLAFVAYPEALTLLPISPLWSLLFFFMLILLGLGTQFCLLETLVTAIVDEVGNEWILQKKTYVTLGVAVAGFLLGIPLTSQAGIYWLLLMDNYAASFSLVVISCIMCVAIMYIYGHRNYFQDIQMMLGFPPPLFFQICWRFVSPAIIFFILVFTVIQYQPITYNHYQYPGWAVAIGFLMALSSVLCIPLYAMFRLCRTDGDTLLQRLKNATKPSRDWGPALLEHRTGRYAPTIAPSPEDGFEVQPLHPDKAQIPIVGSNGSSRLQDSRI
Chain of human GlyT1c transporter (P48067 whole entry): as above

With `CCOC(=O)NC1CCc2ccc(OCCNS(=O)(=O)c3cnn(C)c3)cc2C1Cc1ccc(Cl)c(Cl)c1` (stereo not shown) [Example 9, {1-(3,4-Dichloro-benzyl)-7-[2-(1-methyl-1H-pyrazole-4-sulfonylamino)-ethoxy]-1,2,3,4-tetrahydro-naphthalen-2-yl}-carbamic acid ethyl ester], the IC50 on human GlyT1c (setting [1]) is at most 1 µM. Moreover, the Ki on human GlyT1c transporter (setting [2]) is at most 1 µM.
Take `CCOC(=O)NC1CCc2ccc(OCCNS(=O)(=O)c3ccccc3)cc2C1Cc1ccc(Cl)c(Cl)c1` (stereo not shown) [Example 13, [7-(2-Benzenesulfonylamino-ethoxy)-1-(3,4-dichloro-benzyl)-1,2,3,4-tetrahydronaphthalen-2-yl]-carbamic acid ethyl ester]: the IC50 on human GlyT1c (setting [1]) is at most 1000 µM. Also, on human GlyT1c transporter (setting [2]), the Ki is at most 100 µM.
In the case of `N#Cc1ccc2c(c1)C(Cc1ccc(Cl)c(Cl)c1)C(N)CC2` (stereo not shown) [Example 29, 7-Amino-8-(3,4-dichlorobenzyl)-5,6,7,8-tetrahydronaphthalene-2-carbonitrile trifluoroacetate], on human GlyT1c (setting [1]), the IC50 is at most 100 µM. Moreover, the Ki at human GlyT1c transporter (setting [2]) is at most 10 µM.
Regarding `CCCS(=O)(=O)NCCOc1ccc2c(c1)C(Cc1cccc(Cl)c1)C(N)CC2` (stereo not shown) [Example 55, Propane-1-sulfonic acid {2-[7-amino-8-(3-chloro-benzyl)-5,6,7,8-tetrahydro-naphthalen-2-yloxy]-ethyl}-amide hydrochloride], at human GlyT1c, the concentration for half-maximal inhibition (IC50) was at most 0.1 µM. Besides, the Ki on human GlyT1c transporter is at most 0.01 µM.
Consider `Cn1cc(S(=O)(=O)NCCOc2ccc3c(c2)C(Cc2ccc(Cl)cc2Cl)C(N)CC3)cn1` (stereo not shown) [Example 71, 1-Methyl-1H-pyrazole-4-sulfonic acid {2-[7-amino-8-(2,4-dichloro-benzyl)-5,6,7,8-tetrahydro-naphthalen-2-yloxy]-ethyl}-amide hydrochloride], for which, on human GlyT1c (setting [1]), the IC50 was at most 0.1 µM. Besides, the Ki at human GlyT1c transporter (setting [2]) is at most 0.01 µM.
The matching figures for `CC(C)(C)OC(=O)NC1CCc2ccc(CN)cc2C1Cc1ccc(Cl)c(Cl)c1` (stereo not shown) [Example 38, tert-Butyl[7-(aminomethyl)-1-(3,4-dichlorobenzyl)-1,2,3,4-tetrahydronaphthalen-2-yl]carbamate]: at most 100 µM and at most 100 µM.
The corresponding values for `N#Cc1ccc2c(c1)C(Cc1ccc(Cl)cc1)C(N)CC2` (stereo not shown) [Example 30, 7-Amino-8-(4-chlorobenzyl)-5,6,7,8-tetrahydronaphthalene-2-carbonitrile hydrochloride] are at most 100 µM and at most 100 µM.
The corresponding values for `Cn1cc(S(=O)(=O)NCCOc2ccc3c(c2)C(Cc2cccc(Cl)c2)C(N)CC3)cn1` (stereo not shown) [Example 47, 1-Methyl-1H-pyrazole-4-sulfonic acid {2-[7-amino-8-(3-chloro-benzyl)-5,6,7,8-tetrahydronaphthalen-2-yloxy]-ethyl}-amide hydrochloride] are at most 0.01 µM and at most 0.01 µM.
Regarding `Cn1cnc(S(=O)(=O)NCCOc2ccc3c(c2)C(Cc2ccc(Cl)c(Cl)c2)C(N)CC3)c1` (stereo not shown) [Example 3, N-(2-(7-Amino-8-(3,4-dichlorobenzyl)-5,6,7,8-tetrahydronaphthalen-2-yloxy)ethyl)-1-methyl-1H-imidazole-4-sulfonamide hydrochloride], the half-maximal inhibitory concentration (IC50) on human GlyT1c is at most 0.01 µM. For the same compound, the Ki at human GlyT1c transporter was at most 0.01 µM.
With `NC1CCc2ccc(OCCNS(=O)(=O)c3ccc(Cl)s3)cc2C1Cc1cccc(Cl)c1` (stereo not shown) [Example 59, 5-Chloro-thiophene-2-sulfonic acid {2-[7-amino-8-(3-chloro-benzyl)-5,6,7,8-tetrahydronaphthalen-2-yloxy]-ethyl}-amide], the IC50 on human GlyT1c (setting [1]) is at most 10 µM. Also, the Ki at human GlyT1c transporter (setting [2]) was at most 1 µM.
For the compound `CN(C)S(=O)(=O)NCCOc1ccc2c(c1)C(Cc1ccc(Cl)c(Cl)c1)C(N)CC2` (stereo not shown) [Example 25, N′-(2-{[7-amino-8-(3,4-dichlorobenzyl)-5,6,7,8-tetrahydronaphthalen-2-yl]oxy}ethyl)-N,N-dimethylsulfuric diamide hydrochloride], at human GlyT1c (setting [1]), the half-maximal inhibitory concentration (IC50) was at most 1 µM. The Ki on human GlyT1c transporter (setting [2]) was at most 0.1 µM.
The corresponding values for `CCOC(=O)NC1CCc2ccc(OCCNS(=O)(=O)CC)cc2C1Cc1cccc(Cl)c1` (stereo not shown) [Example 65, [1-(3-Chloro-benzyl)-7-(2-ethanesulfonylamino-ethoxy)-1,2,3,4-tetrahydro-naphthalen-2-yl]-carbamic acid ethyl ester] are at most 100 µM and at least 10 µM.
The matching figures for `NC1CCc2ccc(OCCNS(=O)(=O)c3cccs3)cc2C1Cc1cccc(Cl)c1` (stereo not shown) [Example 56, Thiophene-2-sulfonic acid {2-[7-amino-8-(3-chloro-benzyl)-5,6,7,8-tetrahydro-naphthalen-2-yloxy]-ethyl}-amide]: at most 1 µM and at most 0.1 µM.
The matching figures for `CCCS(=O)(=O)NCCOc1ccc2c(c1)C(Cc1ccc(Cl)cc1Cl)C(NC(=O)OCC)CC2` (stereo not shown) [Example 74, {1-(2,4-Dichloro-benzyl)-7-[2-(propane-1-sulfonylamino)-ethoxy]-1,2,3,4-tetrahydronaphthalen-2-yl}-carbamic acid ethyl ester]: at most 100 µM and at least 10 µM.
With `CCOC(=O)NC1CCc2ccc(OCCNS(=O)(=O)CCC(F)(F)F)cc2C1Cc1ccc(Cl)c(Cl)c1` (stereo not shown) [Example 26, {1-(3,4-Dichloro-benzyl)-7-[2-(3,3,3-trifluoro-propane-1-sulfonylamino)-ethoxy]-1,2,3,4-tetrahydro-naphthalen-2-yl}-carbamic acid ethyl ester], at human GlyT1c (setting [1]), the concentration for half-maximal inhibition (IC50) was at most 1000 µM. For the same compound, the Ki at human GlyT1c transporter (setting [2]) was at most 10 µM.
Regarding `NC1CCc2ccc(OCCNS(=O)(=O)c3ccccc3)cc2C1Cc1ccc(Cl)c(Cl)c1` (stereo not shown) [Example 16, N-{2-[7-Amino-8-(3,4-dichloro-benzyl)-5,6,7,8-tetrahydro-naphthalen-2-yloxy]-ethyl}-benzenesulfonamide hydrochloride], the concentration for half-maximal inhibition (IC50) on human GlyT1c was at most 10 µM. In addition, the Ki on human GlyT1c transporter was at most 10 µM.
For `CCOC(=O)NC1CCc2ccc(OCCNS(=O)(=O)c3sc(C)nc3C)cc2C1Cc1cccc(Cl)c1` (stereo not shown) [Example 49, {1-(3-Chloro-benzyl)-7-[2-(2,4-dimethyl-thiazole-5-sulfonylamino)-ethoxy]-1,2,3,4-tetrahydro-naphthalen-2-yl}-carbamic acid ethyl ester], the IC50 at human GlyT1c (setting [1]) was at most 100 µM. Also, the Ki at human GlyT1c transporter (setting [2]) was at most 100 µM.
As to `CC(C)(C)OC(=O)NC1CCc2ccc(C#N)cc2C1Cc1ccc(Cl)c(Cl)c1` (stereo not shown) [Example 34, tert-Butyl[7-cyano-1-(3,4-dichlorobenzyl)-1,2,3,4-tetrahydronaphthalen-2-yl]carbamate], the IC50 at human GlyT1c (setting [1]) was at most 1000 µM. Moreover, the Ki at human GlyT1c transporter (setting [2]) is at most 10 µM.
On to `NC1CCc2ccc(CNS(=O)(=O)CCCF)cc2C1Cc1ccc(Cl)c(Cl)c1` (stereo not shown) [Example 41, N-{[7-Amino-8-(3,4-dichlorobenzyl)-5,6,7,8-tetrahydronaphthalen-2-yl]methyl}-3-fluoropropane-1-sulfonamide hydrochloride], for which the IC50 at human GlyT1c (setting [1]) is at most 100 µM. Besides, the Ki at human GlyT1c transporter (setting [2]) is at most 10 µM.
The corresponding values for `CCCS(=O)(=O)N(C)CCOc1ccc2c(c1)C(Cc1cccc(Cl)c1)C(NC(=O)OCC)CC2` (stereo not shown) [Example 78, (1-(3-Chloro-benzyl)-7-{2-[methyl-(propane-1-sulfonyl)-amino]-ethoxy}-1,2,3,4-tetrahydronaphthalen-2-yl)-carbamic acid ethyl ester] are at most 10 µM and at most 10 µM.

A word on the IC50: it is the point on the concentration scale where inhibition reaches its midpoint.
